# Reference: patent US8093395B2 (priority 2007, dated 2012)
# Like-named read-outs stand apart in the source and are kept apart here.
# Experiments:
# Experiment in all cases: biochemical
# Format in all cases: biochemical
# Details in all cases: for activity at 1 µM: pH 5.5, read-out: Sphingomyelinase Activity (%)
# [1] = target: T1, Bacillus cereus-SMase (Bacillus cereus, UniProt P11889)
# [2] = target: T1, Bacillus cereus-SMase; remark: listed apart in the source
# Method: Preparation of Sphingomyelin-Liposome (SM-Liposome)
# The sphingomyelin (SM), cholesterol, and CF solution used were as follows:
# SM: sphingomyelin from bovin brain, code: 32156-74
# Cholesterol: Nakarai code: 08721-75
# CF solution: 5(6)-carbosyfluorescein; SIGMA C8166, FW=460.4
# About 100 μl of 1 N sodium hydroxide (NaOH) was added to CF (27 mg/3 ml, DW) to prepare a CF solution. At this time, NaOH was added to give a pH of 7 to 8 as measured by a pH test paper.
# Liposome Preparation Method
# 59 μl of a solution obtained by dissolving 2 mg of sphingomyelin (SM) in 160 μl of a mixed solvent of chloroform (CHCl3) and methanol (MeOH) (CHCl3:MeOH=2:1) was mixed with 20 μl of a solution obtained by dissolving 19.3 mg of cholesterol in 1 ml of CHCl3; the mixture was homogeneously spread to the bottom of a glass test tube while the CHCl3 and MeOH were distilled under nitrogen, and dried in a desiccator for 30 minutes. The CF solution was warmed to 55° C., and 80 μl of the CF solution was added with stirring to the SM from which the solvent was distilled (the molar ratio of […]: 1:1), and a procedure of placing the mixture in a water bath at 55° C. and stirring the mixture was repeated three times at 30-second intervals. A suitable amount of TBS was added, the mixture was centrifuged for 20 minutes at 15,000 rpm and 4° C., and the supernatant was removed. A suspension of the resulting product in 300 μl of TBS was used as a liposome.
# Experiment 2: Influence of Compound (1a) and Compound (1b) on SM-Liposome Degradation Activity of Bacillus cereus-SMase
# (§1) (i) Solution of Compound (1a)
# (§2) Compound (1a) was dissolved in MeOH and adjusted to 1.7 mM and 17 mM.
# (§3) (ii) Solution of Compound (1b)
# (§4) Compound (1b) was dissolved in MeOH and adjusted to 1.7 mM and 17 mM.
# [Method] Bc-SMase (50 ng/ml) was mixed with the solution of Compound (1a) with each concentration or the solution of Compound (1b) with each concentration, and the mixture was adjusted with GTBS (pH 5.5) to a total volume of 180 μl and pre-treated for 10 minutes at 37° C., after which 20 μl of the SM-liposome was added to the resulting reaction mixture and incubated for 30 minutes at 37° C. The reaction mixture was measured using a fluorometer (Corona Electric Co., Ltd.; MTP32 Microplate Reader, Ex490, Em530).
# [3] = target: T1, Bacillus cereus-SMase; remark: listed apart in the source
# Method: Experiment 3: Influence of Compound (1a) and Compound (1b) on the ^14C-Sphingomyelin (^14C-Sphingomyelin) Decomposition Activity of Bacillus cereus-SMase
# as §1, §2, §3, §4
# (iii) Preparation of TX-Buffer
# 0.5 g of Triton X-100 was dissolved in 100 ml of 0.02 M TB.
# [Method] 30 ng/ml Bacillus cereus-SMase was mixed with the solution of Compound (1a) with each concentration or the solution of Compound (1b) with each concentration, and the mixture was adjusted with TX-buffer (pH 5.5) to a total volume of 200 μl and pre-treated for 10 minutes at 37° C., after which 10 μl of ^14C-sphingomyelin was added to the reaction mixture, and the resulting mixture was incubated for 30 minutes at 37° C. 600 μl of a solvent to stop the reaction (stop solution; CHCl3:MeOH=1:2) was added to the reaction mixture and the resulting mixture was stirred for 30 seconds twice, and centrifuged for 20 minutes at 2,000 rpm, after which the upper layer was measured using a liquid scintillation counter.
# T1 sequence (P11889 28-333): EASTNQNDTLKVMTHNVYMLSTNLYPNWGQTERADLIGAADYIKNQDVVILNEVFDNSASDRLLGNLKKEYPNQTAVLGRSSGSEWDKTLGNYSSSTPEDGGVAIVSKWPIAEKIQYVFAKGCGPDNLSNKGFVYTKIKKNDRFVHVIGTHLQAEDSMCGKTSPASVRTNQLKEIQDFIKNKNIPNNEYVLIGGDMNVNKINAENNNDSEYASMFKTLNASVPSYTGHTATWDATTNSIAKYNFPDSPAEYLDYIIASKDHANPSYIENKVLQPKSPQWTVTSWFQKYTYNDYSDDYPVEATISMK
Compound,"sphingomyelinase activity was inhibited by (text summary of Table 1) ([1]; 100-μM solution, sheep erythrocyte hemolysis)",activity at 1 µM [1] [%],"inhibition of sphingomyelinase activity (text summary of Table 2) ([2]; 100-μM solution, SM-liposome degradation)",activity at 1 µM [2] [%],"sphingomyelinase activity was inhibited by (Table 3) ([3]; 100-μM solution, 14C-sphingomyelin decomposition)",activity at 1 µM [3] [%],"inhibitory effect compared with Compound (1a) ([1]; 1 to 100 μM, sheep erythrocyte hemolysis)","inhibitory effect compared with Compound (1a) ([2]; 1 to 100 μM, SM-liposome degradation)","inhibitory effect compared with Compound (1a) ([3]; 1 to 100 μM, 14C-sphingomyelin decomposition)"
CCCCCCCCCCCCC/C=C/[C@@H](O)C(COCc1cccc(-c2ccccn2)n1)NC(=O)CCCCC (stereo partly drawn) [Compound (1a)],about 30%,98.2 ± 1.4,substantially completely inhibited,99 ± 0.2,about 25%,98.6 ± 1.3,,,
CCCCCCCCCCCCC/C=C/[C@@H](OCc1cccc(-c2ccccn2)n1)C(CO)NC(=O)CCCCC (stereo partly drawn) [Compound (1b)],,96.2 ± 2.7,,99.1 ± 0.3,,98.2 ± 2.3,did not show as potent an inhibitory effect as Compound (1a),did not show as potent an inhibitory effect as Compound (1a),did not show as potent an inhibitory effect as Compound (1a)
